Measured values published in ChEMBL document CHEMBL3885881, “DrugMatrix”.
Several values for one entry are separate records, joined by “and”; a condition that tells them apart may be missing. Equal entries are not always repeated.

Organism: Rattus norvegicus
Assay: DrugMatrix - Regimen: Daily Repeat
Assay type: toxicity, organism-based, Sprague-Dawley
Design: regimen Daily Repeat, gender Male, age 6-8 weeks
Settings: in vivo, po, 0 mg/kg, route oral GAVAGE, dose level Control, vehicle .5 % CMC; for ABSOLUTE BASOPHIL / ABSOLUTE EOSINOPHIL / ABSOLUTE LYMPHOCYTE / ABSOLUTE MONOCYTE / ABSOLUTE SEGMENTED NEUTROPHIL / BASOPHIL / EOSINOPHIL / ERYTHROCYTE COUNT / HEMATOCRIT / HEMOGLOBIN / LEUKOCYTE COUNT / LYMPHOCYTE / MEAN CORPUSCULAR HEMOGLOBIN / MEAN CORPUSCULAR HEMOGLOBIN CONCENTRATION / MEAN CORPUSCULAR VOLUME / MONOCYTE / NEUTROPHIL / PLATELET COUNT: tissue Blood
[1] = 120 h, tissue Plasma, time 5 day
[2] = 2184 h, tissue Plasma, time 91 day
[3] = […], tissue Plasma, time 28 day

Cc1ccc2cc3c(ccc4ccccc43)c3c2c1CC3 [3-METHYLCHOLANTHRENE]
TOTAL PROTEIN [1]: 6.06 G/DL and 6.27 G/DL
URIC ACID [1]: 1.04 mg/dL
ABSOLUTE BASOPHIL (2184 h, time 91 day): 130 cells/µL
ABSOLUTE EOSINOPHIL (2184 h, time 91 day): 70 cells/µL
ABSOLUTE LYMPHOCYTE (2184 h, time 91 day): 8670 cells/µL
ABSOLUTE MONOCYTE (2184 h, time 91 day): 160 cells/µL
ABSOLUTE SEGMENTED NEUTROPHIL (2184 h, time 91 day): 1530 cells/µL
BASOPHIL (2184 h, time 91 day): 1.13%
EOSINOPHIL (2184 h, time 91 day): 0.66%
ERYTHROCYTE COUNT (2184 h, time 91 day): 9.13 x10E6/uL
HEMATOCRIT (2184 h, time 91 day): 48.47%
HEMOGLOBIN (2184 h, time 91 day): 16.56 G/DL
LEUKOCYTE COUNT (2184 h, time 91 day): 10.5 x10E3/uL
LYMPHOCYTE (2184 h, time 91 day): 81.63%
MEAN CORPUSCULAR HEMOGLOBIN (2184 h, time 91 day): 18.16 pg
MEAN CORPUSCULAR HEMOGLOBIN CONCENTRATION (2184 h, time 91 day): 34.14 G/DL
MEAN CORPUSCULAR VOLUME (2184 h, time 91 day): 53.14 fL
MONOCYTE (2184 h, time 91 day): 1.53%
NEUTROPHIL (2184 h, time 91 day): 14.71%
PLATELET COUNT (2184 h, time 91 day): 1280.22 x10E3/uL
ALANINE AMINOTRANSFERASE [2]: 28.89 u/L
ALBUMIN [2]: 3.69 G/DL
ALKALINE PHOSPHATASE [2]: 101.11 u/L
ASPARTATE AMINOTRANSFERASE [2]: 70.67 u/L
BLOOD UREA NITROGEN [2]: 16.78 mg/dL
CHLORIDE [2]: 104.56 MEQ/L
CHOLESTEROL [2]: 58.78 mg/dL
CREATINE PHOSPHOKINASE [2]: 91.22 u/L
CREATININE [2]: 0.61 mg/dL
GLUCOSE [2]: 142.33 mg/dL
LACTATE DEHYDROGENASE [2]: 81.67 u/L
LIPASE [2]: 13 u/L
PHOSPHORUS [2]: 7.54 mg/dL
POTASSIUM [2]: 6.27 MEQ/L
SODIUM [2]: 149.89 MEQ/L
TOTAL BILIRUBIN [2]: 0.19 mg/dL
TOTAL PROTEIN [2]: 7.12 G/DL
URIC ACID [2]: 0.97 mg/dL
ABSOLUTE BASOPHIL ([…], time 28 day): 150 cells/µL
ABSOLUTE EOSINOPHIL ([…], time 28 day): 54 cells/µL
ABSOLUTE LYMPHOCYTE ([…], time 28 day): 8890 cells/µL
ABSOLUTE MONOCYTE ([…], time 28 day): 190 cells/µL
ABSOLUTE SEGMENTED NEUTROPHIL ([…], time 28 day): 2250 cells/µL
BASOPHIL ([…], time 28 day): 1.26%
EOSINOPHIL ([…], time 28 day): 0.46%
ERYTHROCYTE COUNT ([…], time 28 day): 8.34 x10E6/uL
HEMATOCRIT ([…], time 28 day): 48.66%
HEMOGLOBIN ([…], time 28 day): 16.04 G/DL
LEUKOCYTE COUNT ([…], time 28 day): 11.58 x10E3/uL
LYMPHOCYTE ([…], time 28 day): 76.74%
MEAN CORPUSCULAR HEMOGLOBIN ([…], time 28 day): 19.2 pg
MEAN CORPUSCULAR HEMOGLOBIN CONCENTRATION ([…], time 28 day): 32.92 G/DL
MEAN CORPUSCULAR VOLUME ([…], time 28 day): 58.32 fL
MONOCYTE ([…], time 28 day): 1.76%
NEUTROPHIL ([…], time 28 day): 19.44%
PLATELET COUNT ([…], time 28 day): 1282.6 x10E3/uL
ALANINE AMINOTRANSFERASE [3]: 27 u/L
ALBUMIN [3]: 3.68 G/DL
ALKALINE PHOSPHATASE [3]: 146.2 u/L
ASPARTATE AMINOTRANSFERASE [3]: 66.6 u/L
BLOOD UREA NITROGEN [3]: 12.4 mg/dL
CHLORIDE [3]: 104.6 MEQ/L
